For the test, the target named is C-X-C chemokine receptor type 4 (Homo sapiens, UniProt P61073). In words: Displacement of [125I]-CXCL12 from HA-tagged human recombinant CXCR4 expressed in HEK293 cells incubated for 1 hr by gamma-radiation counting analysis. The test is classed as cell-based. On the technique in general: Displacement assays read how much labelled ligand stays bound in the presence of the test substance.

The structures appear in SMILES notation.

Chain of C-X-C chemokine receptor type 4 (P61073 whole entry): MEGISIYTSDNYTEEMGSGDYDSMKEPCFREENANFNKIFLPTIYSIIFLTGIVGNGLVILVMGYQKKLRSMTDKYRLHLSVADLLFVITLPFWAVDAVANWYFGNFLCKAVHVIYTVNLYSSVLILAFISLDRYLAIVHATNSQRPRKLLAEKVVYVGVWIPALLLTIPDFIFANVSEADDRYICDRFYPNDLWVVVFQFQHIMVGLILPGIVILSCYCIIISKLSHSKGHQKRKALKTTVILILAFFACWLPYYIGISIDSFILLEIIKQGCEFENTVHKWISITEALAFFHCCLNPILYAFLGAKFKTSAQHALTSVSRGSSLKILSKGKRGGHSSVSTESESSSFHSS

On to `CC(C)C[C@H](NC(=O)[C@H](CO)NC(=O)[C@H](Cc1ccccc1)N(C)C(=O)[C@@H]1CCCN1C(=O)[C@@H](N)CCCCN)C(=O)N[C@@H](CO)C(=O)N[C@@H](Cc1ccc(O)cc1)C(=O)N[C@@H](CCCNC(=N)N)C(=O)N[C@@H](CO)C(=O)N[C@@H](C)C(=O)NCCCC[C@H](NC(=O)[C@@H]1CSSC[C@H](NC(=O)[C@H](Cc2ccc3ccccc3c2)NC(=O)[C@H](CCCNC(=N)N)NC(=O)[C@@H](N)CCCNC(=N)N)C(=O)N[C@@H](Cc2ccc(O)cc2)C(=O)N[C@@H](CCCNC(=N)N)C(=O)N[C@@H](CCCCN)C(=O)N[C@H](CCCCN)C(=O)N2CCC[C@H]2C(=O)N[C@@H](Cc2ccc(O)cc2)C(=O)N[C@@H](CCCNC(=N)N)C(=O)N[C@@H](CCCNC(=N)N)C(=O)N1)C(=O)O`, for which the IC50 – broadly, the point on the concentration scale where inhibition reaches its midpoint – stood at 678 nM.
Same read-out and setting: the same measure for `CC(C)C[C@H](NC(=O)[C@H](CO)NC(=O)[C@@H](NC(=O)[C@H](C)NC(=O)[C@@H](N)CCCCN)C(C)C)C(=O)N[C@@H](CO)C(=O)N[C@@H](Cc1ccc(O)cc1)C(=O)N[C@@H](CCCNC(=N)N)C(=O)N[C@@H](CO)C(=O)N[C@@H](C)C(=O)NCCCC[C@H](NC(=O)[C@@H]1CSSC[C@H](NC(=O)[C@H](Cc2ccc3ccccc3c2)NC(=O)[C@H](CCCNC(=N)N)NC(=O)[C@@H](N)CCCNC(=N)N)C(=O)N[C@@H](Cc2ccc(O)cc2)C(=O)N[C@@H](CCCNC(=N)N)C(=O)N[C@@H](CCCCN)C(=O)N[C@H](CCCCN)C(=O)N2CCC[C@H]2C(=O)N[C@@H](Cc2ccc(O)cc2)C(=O)N[C@@H](CCCNC(=N)N)C(=O)N[C@@H](CCCNC(=N)N)C(=O)N1)C(=O)O`: 353 nM.
For `CC(C)C[C@H](NC(=O)[C@H](CO)NC(=O)[C@@H](NC(=O)[C@@H]1CCCN1)C(C)C)C(=O)N[C@@H](CO)C(=O)N[C@@H](Cc1ccc(O)cc1)C(=O)N[C@@H](CCCNC(=N)N)C(=O)N[C@@H](CO)C(=O)N[C@@H](C)C(=O)NCCCC[C@H](NC(=O)[C@@H]1CSSC[C@H](NC(=O)[C@H](Cc2ccc3ccccc3c2)NC(=O)[C@H](CCCNC(=N)N)NC(=O)[C@@H](N)CCCNC(=N)N)C(=O)N[C@@H](Cc2ccc(O)cc2)C(=O)N[C@@H](CCCNC(=N)N)C(=O)N[C@@H](CCCCN)C(=O)N[C@H](CCCCN)C(=O)N2CCC[C@H]2C(=O)N[C@@H](Cc2ccc(O)cc2)C(=O)N[C@@H](CCCNC(=N)N)C(=O)N[C@@H](CCCNC(=N)N)C(=O)N1)C(=O)O`, the IC50 was 548 nM.
Still for that read-out and setting: the result for `CC(C)C[C@H](NC(=O)[C@H](CO)NC(=O)[C@@H](NC(=O)[C@@H]1CCCN1C(=O)[C@@H](N)CCCCN)C(C)C)C(=O)N[C@@H](CO)C(=O)N[C@@H](C)C(=O)N[C@@H](CCCNC(=N)N)C(=O)N[C@@H](CO)C(=O)N[C@@H](C)C(=O)NCCCC[C@H](NC(=O)[C@@H]1CSSC[C@H](NC(=O)[C@H](Cc2ccc3ccccc3c2)NC(=O)[C@H](CCCNC(=N)N)NC(=O)[C@@H](N)CCCNC(=N)N)C(=O)N[C@@H](Cc2ccc(O)cc2)C(=O)N[C@@H](CCCNC(=N)N)C(=O)N[C@@H](CCCCN)C(=O)N[C@H](CCCCN)C(=O)N2CCC[C@H]2C(=O)N[C@@H](Cc2ccc(O)cc2)C(=O)N[C@@H](CCCNC(=N)N)C(=O)N[C@@H](CCCNC(=N)N)C(=O)N1)C(=O)O` reads 230 nM; that for `CC(C)C[C@H](NC(=O)[C@H](CO)NC(=O)[C@@H](NC(=O)C1(NC(=O)[C@@H](N)CCCCN)Cc2ccccc2C1)C(C)C)C(=O)N[C@@H](CO)C(=O)N[C@@H](Cc1ccc(O)cc1)C(=O)N[C@@H](CCCNC(=N)N)C(=O)N[C@@H](CO)C(=O)N[C@@H](C)C(=O)NCCCC[C@H](NC(=O)[C@@H]1CSSC[C@H](NC(=O)[C@H](Cc2ccc3ccccc3c2)NC(=O)[C@H](CCCNC(=N)N)NC(=O)[C@@H](N)CCCNC(=N)N)C(=O)N[C@@H](Cc2ccc(O)cc2)C(=O)N[C@@H](CCCNC(=N)N)C(=O)N[C@@H](CCCCN)C(=O)N[C@H](CCCCN)C(=O)N2CCC[C@H]2C(=O)N[C@@H](Cc2ccc(O)cc2)C(=O)N[C@@H](CCCNC(=N)N)C(=O)N[C@@H](CCCNC(=N)N)C(=O)N1)C(=O)O`, 137 nM.
Take `CC(C)C[C@H](NC(=O)[C@H](CO)NC(=O)[C@@H](NC(=O)[C@H]1CCCN1C(=O)[C@@H](N)CCCCN)C(C)C)C(=O)N[C@@H](CO)C(=O)N[C@@H](Cc1ccc(O)cc1)C(=O)N[C@@H](CCCNC(=N)N)C(=O)N[C@@H](CO)C(=O)N[C@@H](C)C(=O)NCCCC[C@H](NC(=O)[C@@H]1CSSC[C@H](NC(=O)[C@H](Cc2ccc3ccccc3c2)NC(=O)[C@H](CCCNC(=N)N)NC(=O)[C@@H](N)CCCNC(=N)N)C(=O)N[C@@H](Cc2ccc(O)cc2)C(=O)N[C@@H](CCCNC(=N)N)C(=O)N[C@@H](CCCCN)C(=O)N[C@H](CCCCN)C(=O)N2CCC[C@H]2C(=O)N[C@@H](Cc2ccc(O)cc2)C(=O)N[C@@H](CCCNC(=N)N)C(=O)N[C@@H](CCCNC(=N)N)C(=O)N1)C(=O)O`: the IC50 (hek293) was 151 nM.
As for `CC(C)C[C@H](NC(=O)[C@H](CO)NC(=O)[C@H](C(C)C)N(C)C(=O)[C@@H]1CCCN1C(=O)[C@@H](N)CCCCN)C(=O)N[C@@H](CO)C(=O)N[C@@H](Cc1ccc(O)cc1)C(=O)N[C@@H](CCCNC(=N)N)C(=O)N[C@@H](CO)C(=O)N[C@@H](C)C(=O)NCCCC[C@H](NC(=O)[C@@H]1CSSC[C@H](NC(=O)[C@H](Cc2ccc3ccccc3c2)NC(=O)[C@H](CCCNC(=N)N)NC(=O)[C@@H](N)CCCNC(=N)N)C(=O)N[C@@H](Cc2ccc(O)cc2)C(=O)N[C@@H](CCCNC(=N)N)C(=O)N[C@@H](CCCCN)C(=O)N[C@H](CCCCN)C(=O)N2CCC[C@H]2C(=O)N[C@@H](Cc2ccc(O)cc2)C(=O)N[C@@H](CCCNC(=N)N)C(=O)N[C@@H](CCCNC(=N)N)C(=O)N1)C(=O)O`, the IC50 amounted to 127 nM.
Same read-out and setting: the same measure for `CC(C)C[C@H](NC(=O)[C@H](CO)NC(=O)[C@@H](NC(=O)[C@@H]1CCCN1C(=O)[C@H](C)N)C(C)C)C(=O)N[C@@H](CO)C(=O)N[C@@H](Cc1ccc(O)cc1)C(=O)N[C@@H](CCCNC(=N)N)C(=O)N[C@@H](CO)C(=O)N[C@@H](C)C(=O)NCCCC[C@H](NC(=O)[C@@H]1CSSC[C@H](NC(=O)[C@H](Cc2ccc3ccccc3c2)NC(=O)[C@H](CCCNC(=N)N)NC(=O)[C@@H](N)CCCNC(=N)N)C(=O)N[C@@H](Cc2ccc(O)cc2)C(=O)N[C@@H](CCCNC(=N)N)C(=O)N[C@@H](CCCCN)C(=O)N[C@H](CCCCN)C(=O)N2CCC[C@H]2C(=O)N[C@@H](Cc2ccc(O)cc2)C(=O)N[C@@H](CCCNC(=N)N)C(=O)N[C@@H](CCCNC(=N)N)C(=O)N1)C(=O)O`: 282 nM; for `CCCC[C@H](N)C(=O)N1CCC[C@H]1C(=O)N[C@H](C(=O)N[C@@H](CO)C(=O)N[C@@H](CC(C)C)C(=O)N[C@@H](CO)C(=O)N[C@@H](Cc1ccc(O)cc1)C(=O)N[C@@H](CCCNC(=N)N)C(=O)N[C@@H](CO)C(=O)N[C@@H](C)C(=O)NCCCC[C@H](NC(=O)[C@@H]1CSSC[C@H](NC(=O)[C@H](Cc2ccc3ccccc3c2)NC(=O)[C@H](CCCNC(=N)N)NC(=O)[C@@H](N)CCCNC(=N)N)C(=O)N[C@@H](Cc2ccc(O)cc2)C(=O)N[C@@H](CCCNC(=N)N)C(=O)N[C@@H](CCCCN)C(=O)N[C@H](CCCCN)C(=O)N2CCC[C@H]2C(=O)N[C@@H](Cc2ccc(O)cc2)C(=O)NC(CCCNC(=N)N)C(=O)N[C@@H](CCCNC(=N)N)C(=O)N1)C(=O)O)C(C)C` (some centres not stated): 267 nM; for `CC(C)[C@H](NC(=O)[C@@H]1CCCN1C(=O)[C@@H](N)CCCCN)C(=O)N[C@@H](CO)C(=O)N[C@@H](C)C(=O)N[C@@H](CO)C(=O)N[C@@H](Cc1ccc(O)cc1)C(=O)N[C@@H](CCCNC(=N)N)C(=O)N[C@@H](CO)C(=O)N[C@@H](C)C(=O)NCCCC[C@H](NC(=O)[C@@H]1CSSC[C@H](NC(=O)[C@H](Cc2ccc3ccccc3c2)NC(=O)[C@H](CCCNC(=N)N)NC(=O)[C@@H](N)CCCNC(=N)N)C(=O)N[C@@H](Cc2ccc(O)cc2)C(=O)N[C@@H](CCCNC(=N)N)C(=O)N[C@@H](CCCCN)C(=O)N[C@H](CCCCN)C(=O)N2CCC[C@H]2C(=O)N[C@@H](Cc2ccc(O)cc2)C(=O)N[C@@H](CCCNC(=N)N)C(=O)N[C@@H](CCCNC(=N)N)C(=O)N1)C(=O)O`: 171 nM.
The same measure, in the same setting: the same measure for `CC(C)C[C@H](NC(=O)[C@H](CO)NC(=O)[C@@H](NC(=O)[C@@H]1Cc2ccccc2CN1C(=O)[C@@H](N)CCCCN)C(C)C)C(=O)N[C@@H](CO)C(=O)N[C@@H](Cc1ccc(O)cc1)C(=O)N[C@@H](CCCNC(=N)N)C(=O)N[C@@H](CO)C(=O)N[C@@H](C)C(=O)NCCCC[C@H](NC(=O)[C@@H]1CSSC[C@H](NC(=O)[C@H](Cc2ccc3ccccc3c2)NC(=O)[C@H](CCCNC(=N)N)NC(=O)[C@@H](N)CCCNC(=N)N)C(=O)N[C@@H](Cc2ccc(O)cc2)C(=O)N[C@@H](CCCNC(=N)N)C(=O)N[C@@H](CCCCN)C(=O)N[C@H](CCCCN)C(=O)N2CCC[C@H]2C(=O)N[C@@H](Cc2ccc(O)cc2)C(=O)N[C@@H](CCCNC(=N)N)C(=O)N[C@@H](CCCNC(=N)N)C(=O)N1)C(=O)O`: 222 nM; for `CC(C)C[C@H](NC(=O)[C@H](CO)NC(=O)[C@@H](N)C(C)C)C(=O)N[C@@H](CO)C(=O)N[C@@H](Cc1ccc(O)cc1)C(=O)N[C@@H](CCCNC(=N)N)C(=O)N[C@@H](CO)C(=O)N[C@@H](C)C(=O)NCCCC[C@H](NC(=O)[C@@H]1CSSC[C@H](NC(=O)[C@H](Cc2ccc3ccccc3c2)NC(=O)[C@H](CCCNC(=N)N)NC(=O)[C@@H](N)CCCNC(=N)N)C(=O)N[C@@H](Cc2ccc(O)cc2)C(=O)N[C@@H](CCCNC(=N)N)C(=O)N[C@@H](CCCCN)C(=O)N[C@H](CCCCN)C(=O)N2CCC[C@H]2C(=O)N[C@@H](Cc2ccc(O)cc2)C(=O)N[C@@H](CCCNC(=N)N)C(=O)N[C@@H](CCCNC(=N)N)C(=O)N1)C(=O)O`: 95 nM.

For the origin of these results see ChEMBL document CHEMBL3860039, “Structure-Activity Relationship and Signaling of New Chimeric CXCR4 Agonists” (J Med Chem, 2016).
